Laboratory results taken from PubChem BioAssay AID330 (DTP/NCI, 2004).
Several values for one entry are separate records, joined by “and”; a condition that tells them apart may be missing. Equal values may be shown once. Inconclusive results and toxic doses are left out.

System: P388 leukemia ip, CD2F1 mice, survival T/C
Experiment: NCI In Vivo Anticancer Drug Screen. Data for tumor model P388 Leukemia (intraperitoneal) in CD2F1 (CDF1) mice
Conditions: endpoint: median survival time, higher = longer survival
Procedure, shortened: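 Mice carrying the transplanted tumor received test compound or vehicle. Survival was recorded in each group, and the value is the treated-group measurement divided by that of the vehicle-treated control group.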

[1] = dose: 25.0 mg/kg/injection, schedule: Q01DX005 (ip), vehicle: Klucel (hydroxypropylcellulose) (HPC)
[2] = dose: 50.0 mg/kg/injection, schedule: Q01DX005 (ip), vehicle: saline with Tween-80
[3] = dose: 50.0 mg/kg/injection, schedule: Q01DX005 (ip), vehicle: Klucel (hydroxypropylcellulose) (HPC)
[4] = dose: 100.0 mg/kg/injection, schedule: Q01DX005 (ip), vehicle: Klucel (hydroxypropylcellulose) (HPC)
[5] = dose: 200.0 mg/kg/injection, schedule: Q01DX005 (ip), vehicle: Klucel (hydroxypropylcellulose) (HPC)
[6] = dose: 100.0 mg/kg/injection, schedule: Q01DX005 (ip), vehicle: saline with Tween-80
[7] = dose: 200.0 mg/kg/injection, schedule: Q01DX005 (ip), vehicle: saline with Tween-80
[8] = dose: 60.0 mg/kg/injection, schedule: Q01DX005 (ip), vehicle: saline with Tween-80
[9] = dose: 120.0 mg/kg/injection, schedule: Q01DX005 (ip), vehicle: saline with Tween-80
[10] = dose: 240.0 mg/kg/injection, schedule: Q01DX005 (ip), vehicle: saline with Tween-80

COc1cc[c]([Sn]([O][Sn]([Cl])([c]2ccc(OC)cc2)[c]2ccc(OC)cc2)[c]2ccc(OC)cc2)cc1
T/C (dose: 3.12 mg/kg/injection, schedule: Q01DX005 (ip), vehicle: Klucel (hydroxypropylcellulose) (HPC)): 97 % of control
T/C (dose: 6.25 mg/kg/injection, schedule: Q01DX005 (ip), vehicle: Klucel (hydroxypropylcellulose) (HPC)): 116 % of control and 92 % of control
T/C (dose: 12.5 mg/kg/injection, schedule: Q01DX005 (ip), vehicle: Klucel (hydroxypropylcellulose) (HPC)): 111 % of control
T/C [1]: 120 % of control

N#CN=[N+]([O-])c1cccc([N+](=O)[O-])c1
T/C (dose: 6.25 mg/kg/injection, schedule: Q04DX003 (ip), vehicle: Klucel (hydroxypropylcellulose) (HPC)): 106 % of control
T/C (dose: 12.5 mg/kg/injection, schedule: Q04DX003 (ip), vehicle: Klucel (hydroxypropylcellulose) (HPC)): 89 % of control

C/C(=N\NC(=S)N1CCCCCC1)c1nccs1
T/C (dose: 12.5 mg/kg/injection, schedule: Q01DX005 (ip), vehicle: saline with Tween-80): 98 % of control
T/C (dose: 25.0 mg/kg/injection, schedule: Q01DX005 (ip), vehicle: saline with Tween-80): 100 % of control
T/C [2]: 102 % of control

CC(=O)Nc1ccc(S(=O)(=O)CC#N)cc1
T/C (dose: 50.0 mg/kg/injection, schedule: Q01DX009 (ip), vehicle: suspension in saline): 87 % of control
T/C (dose: 100.0 mg/kg/injection, schedule: Q01DX009 (ip), vehicle: suspension in saline): 93 % of control

CC1CCCC(C2CC3CCCCC3C(N)[N-]2)[N-]1.O=[N+]([O-])O.O=[N+]([O-])O.[Cu+2] (stereo unspecified)
T/C (dose: 6.25 mg/kg/injection, schedule: Q04DX002 (ip), vehicle: suspension in saline): 93 % of control
T/C (dose: 12.5 mg/kg/injection, schedule: Q04DX002 (ip), vehicle: suspension in saline): 110 % of control

CCOC(=O)C(=O)N(CCCNc1c2ccccc2nc2c(OC)cccc12)CCCNc1c2ccccc2nc2c(OC)cccc12
T/C (dose: 1.25 mg/kg/injection, schedule: Q01DX009 (ip), vehicle: water): 120 % of control
T/C (dose: 2.5 mg/kg/injection, schedule: Q01DX009 (ip), vehicle: water): 120 % of control
T/C (dose: 10.0 mg/kg/injection, schedule: Q01DX009 (ip), vehicle: water): 161 % of control

O/N=C/C(Cl)=N\O
T/C (dose: 100.0 mg/kg/injection, schedule: Q04DX002 (ip), vehicle: saline with Tween-80): 91 % of control
T/C (dose: 200.0 mg/kg/injection, schedule: Q04DX002 (ip), vehicle: saline with Tween-80): 90 % of control

CCN(CC)CCOC(=O)C(OCCOc1ccccc1)(c1ccccc1)c1ccccc1
T/C [3]: 117 % of control
T/C [4]: 117 % of control

CC(C)(C)C1CCC2(N3CCOCC3)C(C#N)CC2C1 (stereo unspecified)
T/C [1]: 105 % of control
T/C [3]: 102 % of control
T/C (dose: 50.0 mg/kg/injection, schedule: Q01DX005 (ip), vehicle: saline + Tween-80 + alcohol): 105 % of control
T/C [4]: 103 % of control
T/C (dose: 100.0 mg/kg/injection, schedule: Q01DX005 (ip), vehicle: saline + Tween-80 + alcohol): 110 % of control
T/C [5]: 97 % of control
T/C (dose: 200.0 mg/kg/injection, schedule: Q01DX005 (ip), vehicle: saline + Tween-80 + alcohol): 94 % of control

NC(=O)C1ONC(=O)C1N (stereo unspecified)
T/C (dose: 25.0 mg/kg/injection, schedule: Q01DX009 (ip), vehicle: water): 106 % of control
T/C (dose: 50.0 mg/kg/injection, schedule: Q01DX009 (ip), vehicle: water): 103 % of control
T/C (dose: 100.0 mg/kg/injection, schedule: Q01DX001 (ip), vehicle: water): 98 % of control
T/C (dose: 100.0 mg/kg/injection, schedule: Q01DX009 (ip), vehicle: water): 104 % of control
T/C (dose: 100.0 mg/kg/injection, schedule: Q04DX003 (ip), vehicle: water): 100 % of control
T/C (dose: 200.0 mg/kg/injection, schedule: Q01DX001 (ip), vehicle: water): 100 % of control
T/C (dose: 200.0 mg/kg/injection, schedule: Q01DX009 (ip), vehicle: water): 120 % of control
T/C (dose: 200.0 mg/kg/injection, schedule: Q04DX003 (ip), vehicle: water): 101 % of control
T/C (dose: 400.0 mg/kg/injection, schedule: Q01DX001 (ip), vehicle: water): 92 % of control
T/C (dose: 400.0 mg/kg/injection, schedule: Q04DX003 (ip), vehicle: water): 101 % of control
T/C (dose: 600.0 mg/kg/injection, schedule: Q01DX001 (ip), vehicle: water): 96 % of control

O=C1NC(=O)C(C2CC2)(C2CC2)N1
T/C [2]: 103 % of control
T/C [6]: 101 % of control
T/C [7]: 101 % of control

ONC(=Nc1ccc2ccccc2c1)C(=Nc1ccc2ccccc2c1)NO
T/C [3]: 95 % of control
T/C [4]: 90 % of control
T/C [5]: 94 % of control

COC(=O)c1nnn(-c2cccc(Cl)c2)c1C(=O)c1ccc(Cl)c(Cl)c1
T/C [8]: 100 % of control
T/C [9]: 87 % of control
T/C [10]: 88 % of control

COc1ccc(-n2c(=O)[nH]c3ccccc3c2=O)cc1
T/C (dose: 50.0 mg/kg/injection, schedule: Q01DX009 (ip), vehicle: saline with Tween-80): 108 % of control
T/C (dose: 100.0 mg/kg/injection, schedule: Q01DX009 (ip), vehicle: saline with Tween-80): 100 % of control
T/C (dose: 200.0 mg/kg/injection, schedule: Q01DX009 (ip), vehicle: saline with Tween-80): 104 % of control

S=c1nn[nH]n1-c1cccc2ccccc12
T/C (dose: 100.0 mg/kg/injection, schedule: Q04DX003 (ip), vehicle: saline sonified): 90 % of control
T/C (dose: 200.0 mg/kg/injection, schedule: Q04DX003 (ip), vehicle: saline sonified): 100 % of control
T/C (dose: 400.0 mg/kg/injection, schedule: Q04DX003 (ip), vehicle: saline sonified): 100 % of control

CC1[C@@H]2CC=C3[C@H]4CCC5Cc6nc7c(nc6C[C@@]5(C)C4(O)CC(=O)[C@]32CO[C@]12OC(C)(C)CC2O)CC1CC[C@@H]2C3=C[C@H]4O[C@@]5(O[C@@](C)(CO)C[C@@H]5O)C(C)[C@@]4(O)[C@]3(C)[C@@H](O)CC2[C@]1(C)C7 (stereo partly specified)
T/C (dose: 10.0 micrograms/kg/injection, schedule: Q01DX005 (ip), vehicle: saline + alcohol): 114 % of control and 117 % of control
T/C (dose: 20.0 micrograms/kg/injection, schedule: Q01DX005 (ip), vehicle: saline + alcohol): 121 % of control

O=P(c1ccccc1)(c1ccccc1)c1ccccc1.O=P(c1ccccc1)(c1ccccc1)c1ccccc1.O=P(c1ccccc1)(c1ccccc1)c1ccccc1.O=P(c1ccccc1)(c1ccccc1)c1ccccc1.[O-][Cl+3]([O-])([O-])O.[Zn+2]
T/C (dose: 50.0 mg/kg/injection, schedule: Q01DX001 (ip), vehicle: saline with Tween-80): 104 % of control
T/C (dose: 100.0 mg/kg/injection, schedule: Q01DX001 (ip), vehicle: saline with Tween-80): 103 % of control and 90 % of control

COC(=O)C1(C(=O)Nc2ccccc2)N=N1
T/C (dose: 60.0 mg/kg/injection, schedule: Q01DX005 (ip), vehicle: Klucel (hydroxypropylcellulose) (HPC)): 108 % of control
T/C (dose: 120.0 mg/kg/injection, schedule: Q01DX005 (ip), vehicle: Klucel (hydroxypropylcellulose) (HPC)): 100 % of control
T/C (dose: 240.0 mg/kg/injection, schedule: Q01DX005 (ip), vehicle: Klucel (hydroxypropylcellulose) (HPC)): 103 % of control

C=CCn1c(NC2=C(Cl)C(=O)c3ccccc3C2=O)cc(=O)[nH]c1=O
T/C (dose: 12.5 mg/kg/injection, schedule: Q01DX009 (ip), vehicle: Klucel (hydroxypropylcellulose) (HPC)): 104 % of control
T/C (dose: 25.0 mg/kg/injection, schedule: Q01DX009 (ip), vehicle: Klucel (hydroxypropylcellulose) (HPC)): 98 % of control
T/C (dose: 50.0 mg/kg/injection, schedule: Q01DX009 (ip), vehicle: Klucel (hydroxypropylcellulose) (HPC)): 99 % of control and 98 % of control

c1ccc(Cc2csc3nc4ccccc4n23)cc1
T/C [8]: 100 % of control
T/C [9]: 109 % of control
T/C [10]: 99 % of control

CCN(SSN(CC)S(=O)(=O)c1ccc(C)cc1)S(=O)(=O)c1ccc(C)cc1
T/C [2]: 106 % of control
T/C [6]: 107 % of control
T/C [7]: 110 % of control

CCCOC1=NC2=NC(OCCC)=NC3=C(Br)C=C(Br)C(=N1)N23
T/C [3]: 95 % of control
T/C [4]: 94 % of control
T/C [5]: 91 % of control

COC(COC(=O)N1CCN(C=O)CC1)C1=C(N2CC2)C(=O)C(C)=C(N2CC2)C1=O (stereo unspecified)
T/C (dose: 3.13 mg/kg/injection, schedule: Q01DX005 (ip), vehicle: saline): 177 % of control

Clc1cccc2nncn12
T/C (dose: 50.0 mg/kg/injection, schedule: Q01DX001 (ip), vehicle: saline): 98 % of control
T/C (dose: 100.0 mg/kg/injection, schedule: Q01DX001 (ip), vehicle: saline): 102 % of control
T/C (dose: 200.0 mg/kg/injection, schedule: Q01DX001 (ip), vehicle: saline): 100 % of control
